{"source": "patent US20120101005A1", "about": "“METHODS FOR PREDICTING THE TOXICITY OF A CHEMICAL” (GE HEALTHCARE UK LIMITED, priority 2009, published 2012)", "origin": "cited, not measured here", "key": {"[1]": {"system": "3T3-F442A, 3T3-L1, Ob1771 and embryonic stem cells"}, "[2]": {"system": "human embryonic stem cells"}, "[3]": {"system": "C3H10T1/2 mesenchymal stem cells", "conditions": "induced with 200 nM insulin, 1 μM BRL49653 and LGD1069; lipogenesis, oil red O-staining, AP2 and LPL expression"}, "rat PC12 cells": {"system": "rat PC12 cells", "conditions": "for NGF-induced neuronal differentiation of PC12 cells: monitored by generation of neurite processes"}, "[4]": {"molecular_target": "p140 trk tyrosine kinase NGF-receptor (Rattus norvegicus, UniProt P35739)", "sequence (P35739 33-799)": "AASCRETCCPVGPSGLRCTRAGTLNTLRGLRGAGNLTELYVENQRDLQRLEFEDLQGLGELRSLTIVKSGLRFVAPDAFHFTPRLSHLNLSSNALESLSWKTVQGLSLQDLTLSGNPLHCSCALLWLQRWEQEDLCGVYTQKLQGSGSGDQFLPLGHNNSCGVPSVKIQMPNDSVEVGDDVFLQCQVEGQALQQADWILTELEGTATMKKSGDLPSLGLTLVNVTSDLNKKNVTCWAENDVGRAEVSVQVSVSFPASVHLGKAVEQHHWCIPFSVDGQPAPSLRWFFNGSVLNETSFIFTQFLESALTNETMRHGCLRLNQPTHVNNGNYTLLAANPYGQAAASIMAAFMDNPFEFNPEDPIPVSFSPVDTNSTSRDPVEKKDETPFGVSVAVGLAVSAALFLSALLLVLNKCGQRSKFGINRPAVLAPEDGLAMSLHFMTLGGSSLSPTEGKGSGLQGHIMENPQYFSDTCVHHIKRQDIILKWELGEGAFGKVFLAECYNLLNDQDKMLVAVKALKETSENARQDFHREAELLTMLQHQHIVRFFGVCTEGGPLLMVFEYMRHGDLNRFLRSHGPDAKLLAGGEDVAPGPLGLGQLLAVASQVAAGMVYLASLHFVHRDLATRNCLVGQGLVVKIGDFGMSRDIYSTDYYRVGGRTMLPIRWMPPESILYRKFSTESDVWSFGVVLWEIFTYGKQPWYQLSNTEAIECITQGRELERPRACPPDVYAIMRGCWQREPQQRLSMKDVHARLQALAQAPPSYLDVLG", "conditions": "read-out: IC50, p140 trk NGF-receptor autophosphorylation"}, "EGF receptor": {"molecular_target": "EGF receptor (Homo sapiens, UniProt P00533)", "sequence (P00533 25-1210)": "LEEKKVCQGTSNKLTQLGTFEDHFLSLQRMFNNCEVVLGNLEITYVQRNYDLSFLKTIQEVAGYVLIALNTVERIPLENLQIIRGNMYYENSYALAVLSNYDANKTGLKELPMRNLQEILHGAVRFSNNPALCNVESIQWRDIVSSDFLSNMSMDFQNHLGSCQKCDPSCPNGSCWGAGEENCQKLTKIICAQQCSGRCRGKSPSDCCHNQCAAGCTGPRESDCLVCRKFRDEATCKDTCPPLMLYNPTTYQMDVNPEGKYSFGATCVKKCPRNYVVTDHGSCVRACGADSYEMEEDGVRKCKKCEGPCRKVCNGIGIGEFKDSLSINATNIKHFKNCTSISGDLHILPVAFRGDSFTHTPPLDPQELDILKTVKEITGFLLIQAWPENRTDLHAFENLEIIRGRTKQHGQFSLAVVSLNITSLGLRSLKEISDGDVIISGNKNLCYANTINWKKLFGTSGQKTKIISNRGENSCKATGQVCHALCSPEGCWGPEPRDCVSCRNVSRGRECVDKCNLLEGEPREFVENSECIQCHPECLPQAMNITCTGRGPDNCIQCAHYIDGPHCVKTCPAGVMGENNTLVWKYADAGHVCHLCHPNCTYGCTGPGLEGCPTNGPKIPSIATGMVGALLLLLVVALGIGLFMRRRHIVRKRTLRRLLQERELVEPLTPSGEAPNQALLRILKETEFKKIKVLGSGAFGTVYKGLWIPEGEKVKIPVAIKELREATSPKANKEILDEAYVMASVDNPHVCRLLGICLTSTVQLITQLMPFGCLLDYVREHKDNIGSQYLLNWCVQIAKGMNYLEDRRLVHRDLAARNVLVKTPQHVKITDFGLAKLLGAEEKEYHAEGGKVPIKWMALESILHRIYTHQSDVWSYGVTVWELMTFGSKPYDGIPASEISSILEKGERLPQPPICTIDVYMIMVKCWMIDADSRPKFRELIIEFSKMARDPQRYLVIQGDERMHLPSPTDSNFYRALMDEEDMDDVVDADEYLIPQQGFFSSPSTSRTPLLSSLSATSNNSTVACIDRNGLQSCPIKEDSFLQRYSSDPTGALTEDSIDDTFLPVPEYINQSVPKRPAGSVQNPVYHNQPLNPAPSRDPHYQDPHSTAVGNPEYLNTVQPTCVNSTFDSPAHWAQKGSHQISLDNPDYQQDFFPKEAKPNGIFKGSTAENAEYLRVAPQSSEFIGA"}, "ES cells [5]": {"system": "ES cells", "conditions": "co-treatment with retinoic acid"}, "ES cells [6]": {"system": "ES cells"}, "[7]": {"system": "p140 trk tyrosine kinase NGF-receptor", "conditions": "compound interacts with NGF"}, "[8]": {"system": "common neurotrophin receptor p75NTR", "conditions": "compound interacts with NGF"}, "[9]": {"conditions": "1 μM on the first day of the differentiation process"}}, "note": "Like-named read-outs stand apart in the source and are kept apart here.", "data": [{"molecule": "Cc1cccc(C)c1OCC(=O)N[C@@H](Cc1ccccc1)[C@@H](O)C[C@H](Cc1ccccc1)NC(=O)[C@H](C(C)C)N1CCCNC1=O", "note": "[lopinavir]", "values": [{"measurement": "adipocyte differentiation, by cell model", "setting": "[1]", "result": "inhibited adipocyte differentiation in all cells tested"}]}, {"molecule": "C[S+]([O-])c1ccc(-c2nc(-c3ccc(F)cc3)c(-c3ccncc3)[nH]2)cc1", "note": "(centres unmarked) [SB 203580, 4-(4″-fluorophenyl)-2-(4″-methylsulfinylphenyl)-5-(4″-pyridyl) imidazole]", "values": [{"measurement": "P19 cell differentiation into cardiomyocytes", "setting": "mouse P19 cell; 10 μM, cardiac-actin by immuno-histochemistry, cardiac-actin and atrial natriuretic peptide by RT-PCR", "result": "prevent mouse P19 cell differentiation into cardiomycocytes"}, {"measurement": "effect on the activities of ERKs", "setting": "ERKs", "result": "no significant effect"}, {"measurement": "effect on the activities of JNKs", "setting": "JNKs", "result": "no significant effect"}, {"measurement": "number of cardiomyocytes from human embryonic stem cells", "setting": "[2]; 15 μM", "result": "dramatically reduces the number of cardiomyocytes"}, {"measurement": "cardiomyocyte differentiation of human embryonic stem cells", "setting": "[2]; 25 μM", "result": "completely blocked"}, {"measurement": "generation of cardiomyocytes from human embryonic stem cells", "setting": "[2]; 1-10 μM", "result": "enhances the generation of cardiomyocytes"}]}, {"molecule": "CC(C)(C)NC(=O)[C@@H]1C[C@@H]2CCCC[C@@H]2CN1C[C@@H](O)[C@H](Cc1ccccc1)NC(=O)[C@H](CC(N)=O)NC(=O)c1ccc2ccccc2n1", "note": "[saquinavir]", "values": [{"measurement": "adipocyte differentiation of mesenchymal stem cells", "setting": "[3]", "result": "reduced the adipocyte differentiation"}, {"measurement": "adipocyte differentiation, by cell model", "setting": "[1]", "result": "inhibited the differentiation of only 3T3-L1 and 3T3-F442A cells"}]}, {"molecule": "CC(C)(C)c1cc(/C=C(\\C#N)C(N)=S)cc(C(C)(C)C)c1O", "note": "[AG-879]", "values": [{"measurement": "NGF-induced neurite outgrowth in PC12 cells", "setting": "rat PC12 cells", "result": "inhibits NGF-induced neurite outgrowth"}, {"measurement": "IC50", "setting": "[4]", "result": 10, "unit": "µM"}, {"measurement": "inhibition of EGF receptor phosphorylation", "setting": "EGF receptor", "result": "no inhibition"}, {"measurement": "inhibition of PDGF receptor phosphorylation", "setting": "PDGF receptor", "result": "no inhibition"}]}, {"molecule": "CCCCCCCCCC(=O)N[C@H](CN1CCOCC1)[C@H](O)c1ccccc1", "note": "[D-PDMP, D-theo-1-phenyl-2-decanoylamino-3-morphlino-1-propanol]", "values": [{"measurement": "death of P19-derived neurons", "setting": "P19 EC cells", "result": "causing the death of P19-derived neurons"}, {"measurement": "cell death of undifferentiated P19 EC cells", "setting": "P19 EC cells; 50 μM", "result": "without any indication of cell death"}, {"measurement": "proliferation of the undifferentiated P19 EC cells", "setting": "P19 EC cells; 50 μM, added 3 days prior to retinoic acid and maintained", "result": "reduced"}, {"measurement": "neurite elongation", "setting": "P19 EC cells; 50 μM, neurites present but failed to develop correctly", "result": "abolished neurite elongation"}, {"measurement": "neurite outgrowth", "setting": "P19 EC cells; P19 EC in-vitro neuronal differentiation model", "result": "inhibited neurite outgrowth"}]}, {"molecule": "Cc1c(O)cccc1C(=O)N[C@@H](CSc1ccccc1)[C@H](O)CN1C[C@H]2CCCC[C@H]2C[C@H]1C(=O)NC(C)(C)C", "note": "[nelfinavir]", "values": [{"measurement": "adipocyte differentiation of mesenchymal stem cells", "setting": "[3]", "result": "reduced the adipocyte differentiation"}, {"measurement": "adipocyte differentiation, by cell model", "setting": "[1]", "result": "inhibited adipocyte differentiation in all cells tested"}]}, {"molecule": "COC(=O)[C@]1(O)C[C@H]2O[C@]1(C)n1c3ccc(O)cc3c3c4c(c5c6ccccc6n2c5c31)C(=O)NC4=O", "note": "[Indocarbazostatin C]", "values": [{"measurement": "NGF-induced neuronal differentiation of PC12 cells", "setting": "rat PC12 cells", "result": "inhibitors"}]}, {"molecule": "CC(C)(C)NC(=O)[C@@H]1CN(Cc2cccnc2)CCN1C[C@@H](O)C[C@@H](Cc1ccccc1)C(=O)N[C@H]1c2ccccc2C[C@H]1O", "note": "[indinavir]", "values": [{"measurement": "adipocyte differentiation, by cell model", "setting": "[1]", "result": "inhibited the differentiation of only 3T3-L1 and 3T3-F442A cells"}]}, {"molecule": "Cc1cc(S(C)(=O)=O)c(S(C)(=O)=O)cc1C(=O)NC(=N)N", "note": "[EMD87580]", "values": [{"measurement": "cardiomyocyte differentiation of mouse P19 embryonic carcinoma cells", "setting": "mouse P19 cell; during DMSO induction", "result": "inhibit the cardiomyocyte differentiation"}]}, {"molecule": "COC(=O)[C@@]1(O)C[C@H]2O[C@]1(C)n1c3ccccc3c3c4c(c5c6ccccc6n2c5c31)C(=O)NC4", "note": "[K-252a]", "values": [{"measurement": "NGF-induced neuronal differentiation of PC12 cells", "setting": "rat PC12 cells", "result": "effective inhibitors"}]}, {"molecule": "COc1cccc(-c2cc(=O)c3ccccc3o2)c1N", "note": "[PD98059, 2″-Amino-3″-Methoxyflavone]", "values": [{"measurement": "concentration at which reported as inhibitor of human embryonic stem cell cardiomyocyte differentiation", "setting": "[2]", "result": "5 to 25", "unit": "µM"}, {"measurement": "NGF-induced neurite formation in PC12 cells", "setting": "rat PC12 cells", "result": "completely blocks"}, {"measurement": "cell viability of PC12 cells", "setting": "rat PC12 cells", "result": "without affecting cell viability"}, {"measurement": "adipocyte formation from ES cells", "setting": "ES cells [5]", "result": "prevents adipocyte formation"}, {"measurement": "expression of adipogenic markers in ES cells", "setting": "ES cells [5]", "result": "prevented"}, {"measurement": "adipocyte formation from ES cells", "setting": "ES cells [5]; listed as PD68059", "result": "prevented"}, {"measurement": "differentiation of ES cells into neuron or cardiomyocytes", "setting": "ES cells [6]", "result": "no effect"}]}, {"molecule": "Nc1ncnc2c1ncn2C(C=O)OC(C=O)CO", "note": "(centres unmarked) [AdOx, Adenosine dialdehyde]", "values": [{"measurement": "expression levels of the neuronal markers β-tubulin, NeuroD1 and mash1", "setting": "P19 EC cells; [9]", "result": "decreased"}, {"measurement": "number of neurites observed", "setting": "P19 EC cells; [9]", "result": "decreased"}]}, {"molecule": "Cn1c2ccc(NC(=O)c3ccccc3)cc2c(=O)n2nc(C(=O)O)cc12", "note": "[PD90780, 7-(Benzolylamino)-4,9-Dihydro-4-Methyl-9-Oxo-Pyrazolo[5,1-b]Quinazoline-2-Carboxlic Acid]", "values": [{"measurement": "NGF-induced neuronal differentiation of PC12 cells", "setting": "rat PC12 cells", "result": "abolishes"}, {"measurement": "binding of NGF to p140 trk tyrosine kinase NGF-receptor", "setting": "[7]", "result": "preventing its binding"}, {"measurement": "binding of NGF to p75NTR", "setting": "[8]", "result": "preventing its binding"}]}, {"molecule": "C[C@]12O[C@H](C[C@]1(O)C(=O)O)n1c3ccccc3c3c4c(c5c6ccccc6n2c5c31)CNC4=O", "note": "[K-252b]", "values": [{"measurement": "NGF-induced neuronal differentiation of PC12 cells", "setting": "rat PC12 cells", "result": "effective inhibitors"}]}, {"molecule": "COC(=O)[C@]1(O)C[C@H]2O[C@]1(C)n1c3ccc(O)c(N)c3c3c4c(c5c6ccccc6n2c5c31)C(=O)NC4=O", "note": "[Indocarbazostatin D]", "values": [{"measurement": "NGF-induced neuronal differentiation of PC12 cells", "setting": "rat PC12 cells", "result": "inhibitors"}]}, {"molecule": "Cn1cc(C2=C(c3ccc(Cl)cc3Cl)C(=O)NC2=O)c2ccccc21", "note": "[SB216763]", "values": [{"measurement": "concentration at which reported as inhibitor of human embryonic stem cell cardiomyocyte differentiation", "setting": "[2]", "result": "10 to 25", "unit": "µM"}]}, {"molecule": "CC(C)c1nc(CN(C)C(=O)N[C@H](C(=O)N[C@@H](Cc2ccccc2)C[C@H](O)[C@H](Cc2ccccc2)NC(=O)OCc2cncs2)C(C)C)cs1", "note": "[ritonavir]", "values": [{"measurement": "adipocyte differentiation of mesenchymal stem cells", "setting": "[3]", "result": "reduced the adipocyte differentiation"}, {"measurement": "adipocyte differentiation, by cell model", "setting": "[1]", "result": "inhibited the differentiation of only 3T3-L1 and 3T3-F442A cells"}]}]}
